Data reported in a compilation of properties of binary mixtures (doi:10.1021/acs.jpcb.8b06939).

Assay: xn = mol fraction of the nth substance listed
Details: 100 kPa

O=C[C@H](O)[C@@H](O)[C@H](O)[C@H](O)CO + CC(=O)[O-].CC[n+]1ccn(C)c1
viscosity [mPa·s]
Details | x1 = 0.0095 | x1 = 0.0284 | x1 = 0.0474 | x1 = 0.095 | x1 = 0.1429
282.5 K | – | – | 756 | 2299 | –
283.3 K | – | – | – | – | 7397
292.4 K | 185 | 245 | 339 | 870 | –
293.3 K | – | – | – | – | 2397
302.1 K | – | – | – | – | 921
303 K | 100 | 123 | 165 | 380 | –
312.5 K | 61 | 73 | 97 | 193 | –
322.6 K | 38 | 45 | 58 | 111 | 207
332.2 K | 28 | 32 | 39 | 68 | –
341.3 K | – | 23 | – | 47 | –
342.5 K | 20 | – | 29 | – | 77
352.1 K | 15 | 18 | 21 | 34 | 53
362.3 K | 13 | 14 | 16 | 24 | 38
371.7 K | 11 | 12 | 13 | – | 28

OC[C@H]1O[C@@H](O[C@H]2[C@H](O)[C@@H](O)C(O)O[C@@H]2CO)[C@H](O)[C@@H](O)[C@@H]1O (stereo partly specified) + CC(=O)[O-].CC[n+]1ccn(C)c1
viscosity [mPa·s]
Details | x1 = 0.005 | x1 = 0.0151 | x1 = 0.0255 | x1 = 0.0524 | x1 = 0.0807
282.5 K | 407 | 517 | 756 | 2299 | –
283.3 K | – | – | – | – | 7397
292.4 K | 185 | 245 | – | 870 | –
293.3 K | – | – | – | – | 2397
303 K | 100 | 123 | 165 | 380 | –
312.5 K | – | – | 97 | 193 | 419
322.6 K | 38 | – | 58 | 111 | –
332.2 K | 28 | 32 | – | 68 | –
341.3 K | – | 23 | – | 47 | –
342.5 K | – | – | 29 | – | 77
352.1 K | 15 | 18 | 21 | 34 | 53
362.3 K | 13 | 14 | 16 | 24 | 38
371.7 K | 11 | 12 | 13 | – | 28
373.1 K | – | – | – | 19 | –
